Experiments:
[1] = Spectrofluorimetric quantification of emission in hydroalcoholic standard solutions; type: physicochemical
Text: (§1) For the in vitro validation of the Sequential Photonic Transfer (SPT) process, different molecules belonging to the groups of plant-derived compounds previously identified as potential targets have been selected. In particular, the selected molecules are morin and quercetin (flavonoids), cannabinol (CBN), cannabidiol (CBD), and cannabichromene (CBC) (cannabinoids), and chlorophyll A, which are fully representative examples of each target compound group. […] Flavonoids typically have absorption peaks around 260 and 380 nm, while cannabinoids have absorption peaks between 230 and 300 nm (FIG. 3A). […] For these compounds, their emission capacity at 460 nm (blue light) when excited by 280 and 320 nm light (UVB/A) and their emission capacity at 625 nm (red light) when excited by 460 nm light have been evaluated using spectrofluorimetry.
(§2) FIG. 3. […] Spectrofluorimetric quantification in hydroalcoholic standard solutions of emission at 460 nm (blue region of the electromagnetic spectrum) of different compounds after excitation at 280 or 320 nm (UVB/A) (C) and of emission at 625 nm (red region of the electromagnetic spectrum) after excitation at 460 nm (D) (Mn: Morin; Qc: Quercetin; CBD: cannabidiol; CBN: cannabinol; CBC: cannabichromene; Cl: chlorophyll A).

[2] = Continuous absorption spectra of flavonoids, cannabinoids and chlorophylls; type: physicochemical; conditions: continuous absorption spectrum, FIG. 3A/3B
Text: as §1, §2

[3] = In vitro ROS production by colorimetric Nitro Blue Tetrazolium (NBT) oxidation in hydroalcoholic solution; conditions: excited with UV light (310 nm), FIG. 4
Text: NBT is a specific molecular sensor for superoxide anion production, which is the first type of ROS produced during the reduction of molecular oxygen to generate water. In the presence of superoxide anion, NBT, a colorless molecule in its reduced state, oxidizes to form a chromophore with an absorption peak at 540 nm. The degree of oxidation, and therefore the absorbance at 540 nm, is directly proportional to ROS production. […] However, the combination of flavonoids/cannabinoids, chlorophyll A, and PpIX excited with UV light (310 nm) induces a potent and significant ROS production equivalent to that obtained by exciting PpIX with red light (FIG. 4).
FIG. 4. Quantification of in vitro ROS production measured as absorbance at 540 nm of Nitro Blue Tetrazolium (NBT) compound oxidized by […] production in hydroalcoholic solutions of different compound combinations under basal conditions or excited with UV (310 nm) or red (635 nm) light. Results are expressed as mean+/−standard deviation of three independent experiments. *, […]; ***, P≤0.01 (PpIX: Protoporphyrin IX; Mn: Morin; CBD: cannabidiol; Cl: chlorophyll A).

primary fibroblasts = experiment: Summary of examples: UVB radiation of primary fibroblasts; type: cell-based; conditions: summary statement on the examples

Compound	emission at 460 nm (blue light) ([1]; excited by 280 and 320 nm light (UVB/A), FIG. 3C)	emission at 625 nm (red light) ([1]; excited by 460 nm light (blue), FIG. 3D)	absorption peaks [2]	ROS production (NBT oxidation, absorbance at 540 nm) [3]	protection of cells from UVB radiation (primary fibroblasts)	stimulation of proliferation and extracellular matrix protein synthesis (primary fibroblasts)
C=Cc1c(C)c2cc3nc(c4c5[n-]c(cc6nc(cc1[n-]2)C(C)=C6CC)c(C)c5C(=O)[C@@H]4C(=O)OC)[C@@H](CCC(=O)OC/C=C(\C)CCC[C@H](C)CCC[C@H](C)CCCC(C)C)[C@@H]3C.[Mg+2] [chlorophyll A]	no emission of blue light	strong emission of red light	around 450 nm	unable to induce significant NBT oxidation	neither capable of protecting against UVB radiation	nor stimulating cells in any way
C=Cc1c(C)c2cc3nc(c4c5[n-]c(cc6nc(cc1[n-]2)C(C=O)=C6CC)c(C)c5C(=O)[C@@H]4C(=O)OC)[C@@H](CCC(=O)OC/C=C(\C)CCC[C@H](C)CCC[C@H](C)CCCC(C)C)[C@@H]3C.[Mg+2] [chlorophyll B]			around 450 nm			
